Tested on: 435261-313-R-J1-PDC complex spheroid viability
Test: Anticancer human tumor 435261-313-R-J1-PDC patient-derived colon adenocarcinoma cell line growth inhibition [GQUAD]
Conditions: for IC50: curve of first compound; for viability, T/C: stronger effect = lower value
Source text: DNA G-quadruplex Stabilizer Agents in Combinations in Complex Spheroids
A high-throughput screen of multi-cell type tumor spheroids was designed to identify active combinations of DNA G-quadruplex stabilizer agents and targeted small molecules. Complex spheroids include a stromal component modeled by human endothelial cells (HUVEC) and fibroblasts modeled by human mesenchymal stem cells (MSCs). The concentration ranges selected for each drug and investigational agent were based upon clinically achievable concentrations if the clinical Cmax of the agent was known.
Compounds. The drugs and investigational agents: pidnarulex (CX-5461; NSC782164), APTO-253 (NSC789042), BRACO-19 (NSC847499), peposertib (NSC802822), ceralasertib (NSC780249), elimusertib (NSC800525), camonsertib (NSC841442), AZD-1390 (NSC803789), olaparib (NSC753686), talazoparib (NSC767125), ART-558 (NSC835418), sotorasib (NSC818433), MRTX-1133 (NSC836407), SN-38 (NSC673596), topotecan (NSC609699), etoposide (NSC141540), doxorubicin (NSC123127), gemcitabine (NSC613327), 5-fluorouracil (NSC19893), paclitaxel (NSC125973), vemurafenib (NSC761431), panobinostat (NSC761190), R-306465 (JNJ-16241199; NSC773264), adavosertib (NSC754352), TP-3654 (NSC805149), carboplatin (NSC241240), KSQ-4279 (NSC840948), and staurosporine (NSC755774) were obtained from the National Cancer Institute (NCI) Developmental Therapeutics Program Chemical Repository (34). The FDA-approved anticancer drug set is available from the NCI Developmental Therapeutics Program. […] The stock solutions were prepared in dimethyl sulfoxide (DMSO, Sigma-Aldrich, St. Louis, MO, cat. D2650) at 800-fold the tested concentration and stored at -70 degrees C prior to their use. All drugs and investigational agents were tested over a range starting from a high concentration at or near the clinical Cmax and decreasing in half-log increments. If the clinical Cmax for an agent had not been determined, the highest concentration tested was 10 microM.
2.3 Cell Culture. All cells were maintained in an incubator at 37 degrees C and 5% CO2 with 95% humidity. The PDC lines were cultured according to standard operating procedures established by the NCI PDMR. All PDCs were thawed and cultured in Matrigel-coated flasks prepared with a working solution of 1X Ham's F-12 nutrient mix, without supplementation (Invitrogen, cat. 11765054), 100 U/mL penicillin-streptomycin (Invitrogen, cat. 15140122), and 2.5% Matrigel (Corning Inc., cat. 354248) for the first three passages. The 857933-349-R-J2-PDC line was cultured in 6C/Colon 1B media, which includes advanced DMEM/F-12 (Thermo Fisher Scientific, cat. 12634028), 10 mM HEPES (Thermo Fisher Scientific, cat. 15630080), 1X GlutaMAX supplement (Thermo Fisher Scientific, cat. 35050061), 0.1 mg/mL primocin (InvivoGen, cat. ant-pm-2), 10% defined fetal bovine serum, heat inactivated (HyClone Laboratories Inc., cat. SH30070.03HI), 50% L-WRN conditioned media (ATCC, cat. CRL-3276), 1.25 mM N-Acetyl-L-cysteine (Sigma-Aldrich, cat. A9165), 10 mM nicotinamide (Sigma-Aldrich, cat. N0636), 1X B-27 supplement (Thermo Fisher Scientific, cat. 17504044), 1X N-2 supplement (Thermo Fisher Scientific, cat. 17502048), 10 microM Y-27632 dihydrochloride (Tocris Bioscience, cat. 1254), and 50 ng/mL human EGF recombinant protein (Thermo Fisher Scientific, cat. PHG0311). The 485176-168-R4-J1-PDC line was cultured in Panc media, which includes all 6C/Colon 1B media components plus 100 ng/mL human FGF-10 (Thermo Fisher Scientific, cat. 100-26), 500 nM SB-431542 (Selleckchem, cat. S1067), and gastrin (Tocris, cat. 3006).
[…]
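Also: spheroids exposed to the agents for seven days before readout.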
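For viability, T/C in this document: percent of vehicle control viability with DMSO wells as 100%.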

`O=C(c1cc(Cc2n[nH]c(=O)c3ccccc23)ccc1F)N1CCN(C(=O)C2CC2)CC1` + Cc1cnc(CNC(=O)c2c(=O)c3ccc(N4CCCN(C)CC4)nc3n3c2sc2ccccc23)cn1 showed an IC50 (second compound 0.0316 µM) of over 10 µM, an IC50 (second compound 0.1 µM) of over 10 µM and an IC50 (second compound 0.316 µM) of over 10 µM. For the same compound, the IC50 (second compound 1 µM) was under 0.0316 µM, the IC50 (second compound 3.16 µM) was under 0.0316 µM and the IC50 (second compound 10 µM) was under 0.0316 µM. It also gave a viability, T/C (second compound 0.0316 µM, first compound 0.0316 µM) of 76%, a viability, T/C (second compound 0.0316 µM, first compound 0.1 µM) of 60.9% and a viability, T/C (second compound 0.0316 µM, first compound 0.316 µM) of 66.3%. It also gave a viability, T/C (second compound 0.0316 µM, first compound 1 µM) of 68.2%, a viability, T/C (second compound 0.0316 µM, first compound 3.16 µM) of 84% and a viability, T/C (second compound 0.0316 µM, first compound 10 µM) of 77.7%. For the same compound, the viability, T/C (second compound 0.1 µM, first compound 0.0316 µM) was 65.2%, the viability, T/C (second compound 0.1 µM, first compound 0.1 µM) was 65.1% and the viability, T/C (second compound 0.1 µM, first compound 0.316 µM) was 58.3%. For the same compound, the viability, T/C (second compound 0.1 µM, first compound 1 µM) was 62%, the viability, T/C (second compound 0.1 µM, first compound 3.16 µM) was 64% and the viability, T/C (second compound 0.1 µM, first compound 10 µM) was 62.1%. For the same compound, the viability, T/C (second compound 0.316 µM, first compound 0.0316 µM) was 59.4%, the viability, T/C (second compound 0.316 µM, first compound 0.1 µM) was 53.8% and the viability, T/C (second compound 0.316 µM, first compound 0.316 µM) was 58.7%. It also gave a viability, T/C (second compound 0.316 µM, first compound 1 µM) of 59.6%, a viability, T/C (second compound 0.316 µM, first compound 3.16 µM) of 53% and a viability, T/C (second compound 0.316 µM, first compound 10 µM) of 52.2%. The viability, T/C (second compound 1 µM, first compound 0.0316 µM) was 38.6%, the viability, T/C (second compound 1 µM, first compound 0.1 µM) was 45.9% and the viability, T/C (second compound 1 µM, first compound 0.316 µM) was 38.1%. The viability, T/C (second compound 1 µM, first compound 1 µM) was 42.7%, the viability, T/C (second compound 1 µM, first compound 3.16 µM) was 55.9% and the viability, T/C (second compound 1 µM, first compound 10 µM) was 37.6%. For the same compound, the viability, T/C (second compound 3.16 µM, first compound 0.0316 µM) was 26.4%, the viability, T/C (second compound 3.16 µM, first compound 0.1 µM) was 9.89% and the viability, T/C (second compound 3.16 µM, first compound 0.316 µM) was 25.5%. It also gave a viability, T/C (second compound 3.16 µM, first compound 1 µM) of 15.3%, a viability, T/C (second compound 3.16 µM, first compound 3.16 µM) of 27.3% and a viability, T/C (second compound 3.16 µM, first compound 10 µM) of 20.5%. It also gave a viability, T/C (second compound 10 µM, first compound 0.0316 µM) of 0.23%, a viability, T/C (second compound 10 µM, first compound 0.1 µM) of 0.23% and a viability, T/C (second compound 10 µM, first compound 0.316 µM) of 0.21%. For the same compound, the viability, T/C (second compound 10 µM, first compound 1 µM) was 0.23%, the viability, T/C (second compound 10 µM, first compound 3.16 µM) was 0.22% and the viability, T/C (second compound 10 µM, first compound 10 µM) was 0.23%.

Source: PubChem BioAssay AID2060494 (Molecular Pharmacology Branch, DTP, NCI, 2025)
